Our source for the Dmax, DC50 and IC50 values is patent publication US20260092057A1, “BCL-XL/BCL-2 DEGRADERS AND USES THEREOF” (Kymera Therapeutics, Inc., priority 2022, published 2026).

Where only a bound is given, the exact number is not on record here.

Format in all cases: cell-based
One assay concerns the target T1, BCL-XL (Homo sapiens, UniProt Q07817).
T1 construct: BCL-XL degradation results in MOLT-4 cells for compounds of the invention; endogenous in cells; host or cells: MOLT-4
Briefly: BCL-XL degradation assay in MOLT-4 cells (ELISA, 6 h). Particulars: for DC50: read-out: Bcl-xL ELISA in MOLT-4 degradation 6 h: External Abs-DC50. On the technique in general: An ELISA detects its analyte on a solid surface through an enzyme-linked reagent.

A further assay deals with MOLT-4 cells. Nature of the assay: CTG (CellTiter-Glo) cell viability assay, MOLT-4. Particulars: Homo sapiens, MOLT-4, 72 h, MOLT-4, 3 day; read-out: CTG Cell Viability Assay - MOLT-4 3 day: Average external-IC50. The method in brief: (§1)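 Viability read by CellTiter-Glo luminescence after 3 days' compound exposure at 37 °C under 5% CO2, with 10,000 cells per well. Dosing was nine 1:3 dilutions starting at 10 µM, DMSO normalized to 0.2%; IC50 values come from three-parameter logistic curve fitting.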
(In ATP-based viability assays light output follows the ATP content of the culture.)

The next assay concerns Caki-2 cells. Briefly: CTG (CellTiter-Glo) cell viability assay, Caki-2. Particulars: Homo sapiens, CAKI-2, 72 h, Caki-2, 3-day; read-out: CTG Chempartner/PHA- Caki-2 3-day: Average external-IC50. The method in brief: as §1

What is called Dmax is the greatest extent of degradation seen. A low value points to a partial loss of target. One may read the DC50 as the midpoint of the concentration-degradation curve.

T1 sequence (Q07817 whole entry): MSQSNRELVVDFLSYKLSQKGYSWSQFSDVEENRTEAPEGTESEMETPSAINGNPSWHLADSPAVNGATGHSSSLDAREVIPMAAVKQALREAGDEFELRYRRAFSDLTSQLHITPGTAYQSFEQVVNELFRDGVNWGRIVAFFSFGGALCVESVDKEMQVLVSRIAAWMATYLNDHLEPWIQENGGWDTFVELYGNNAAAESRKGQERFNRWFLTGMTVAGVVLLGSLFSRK

With `Cc1ncsc1-c1ccc([C@H](C)NC(=O)[C@@H]2C[C@@H](O)CN2C(=O)[C@@H](NC(=O)CCCCCC(=O)N2CCN(CCCNc3ccc(S(=O)(=O)NC(=O)c4ccc(N5CCN(CC6=C(c7ccc(Cl)cc7)CC(C)(C)CC6)CC5)cc4Oc4cnc5[nH]ccc5c4)cc3S(=O)(=O)C(F)(F)F)CC2)C(C)(C)C)cc1` [I-22, (2S,4R)-1-((S)-2-(7-(4-(3-((4-(N-(2-((1H-pyrrolo[2,3-b]pyridin-5-yl)oxy)-4-(4-((4′-chloro-5,5-dimethyl-3,4,5,6-tetrahydro-[1,1′-biphenyl]-2-yl)methyl)piperazin-1-yl)benzoyl)sulfamoyl)-2-((trifluoromethyl)sulfonyl)phenyl)amino)propyl)piperazin-1-yl)-7-oxoheptanamido)-3,3-dimethylbutanoyl)-4-hydroxy-N—((S)-1-(4-(4-methylthiazol-5-yl)phenyl)ethyl)pyrrolidine-2-carboxamide], at BCL-XL, the Dmax is > 75% and the DC50 is 10 to 100 nM. In addition, the IC50 in the assay on MOLT-4 cells was in the range of 100 to 1000 nM. Besides, the IC50 with Caki-2 cells fell in the range of 10000 to 30000 nM.
In the same order, the values of `Cc1ncsc1-c1ccc([C@H](C)NC(=O)[C@@H]2C[C@@H](O)CN2C(=O)[C@@H](NC(=O)CCCCCC(=O)N2CCN(CCCN(C)CC[C@H](CSc3ccccc3)Nc3ccc(S(=O)(=O)NC(=O)c4ccc(N5CCC([C@@H](O)c6ccccc6-c6ccc(Cl)cc6)CC5)cc4)cc3S(=O)(=O)C(F)(F)F)CC2)C(C)(C)C)cc1` [I-24] are < 50%, 500 to 1000 nM, > 3000 nM and > 30000 nM.
In the same order, the values of `Cc1ncsc1-c1ccc([C@H](C)NC(=O)[C@@H]2C[C@@H](O)CN2C(=O)[C@@H](NC(=O)CCCCCCC(=O)N2CCN(Cc3ccc(-c4ccc(Cl)cc4)c([C@H](O)C4CCN(c5ccc(C(=O)NS(=O)(=O)c6ccc(N[C@H](CCN(C)CCO)CSc7ccccc7)c(S(=O)(=O)C(F)(F)F)c6)cc5)CC4)c3)CC2)C(C)(C)C)cc1` [I-25] are > 75%, 10 to 100 nM, 100 to 1000 nM and > 30000 nM.
Turning to `Cc1ncsc1-c1ccc([C@H](C)NC(=O)[C@@H]2C[C@@H](O)CN2C(=O)[C@@H](NC(=O)CCCCCC(=O)N2CCN(CC[C@H](CSc3ccccc3)Nc3ccc(S(=O)(=O)NC(=O)c4ccc(N5CCC([C@@H](O)c6ccccc6-c6ccc(Cl)cc6)CC5)cc4)cc3S(=O)(=O)C(F)(F)F)CC2)C(C)(C)C)cc1` [I-28, (2S,4R)-1-((S)-2-(7-(4-((R)-3-((4-(N-(4-(4-((R)-(4′-chloro-[1,1′-biphenyl]-2-yl)(hydroxy)methyl)piperidin-1-yl)benzoyl)sulfamoyl)-2-((trifluoromethyl)sulfonyl)phenyl)amino)-4-(phenylthio)butyl)piperazin-1-yl)-7-oxoheptanamido)-3,3-dimethylbutanoyl)-4-hydroxy-N—((S)-1-(4-(4-methylthiazol-5-yl)phenyl)ethyl)pyrrolidine-2-carboxamide], the greatest degradation seen (Dmax) at BCL-XL is > 75%. In addition, the half-maximal degradation concentration (DC50) on BCL-XL was in the range of 10 to 100 nM. Also, the figures for the IC50 in the assay with MOLT-4 cells and in the assay on Caki-2 cells were < 100 nM and 10000 to 30000 nM, respectively.
In turn, `Cc1ncsc1-c1ccc(CNC(=O)[C@@H]2C[C@@H](O)CN2C(=O)[C@@H](NC(=O)C2(F)CC2)C(C)(C)C)c(OCCN2CCN(CC[C@H](CSc3ccccc3)Nc3ccc(S(=O)(=O)NC(=O)c4ccc(N5CCC6(CC5)CC(N5CCC[C@H]5c5ccccc5C5CC5)C6)cc4)cc3S(=O)(=O)C(F)(F)F)CC2)c1` [I-31, (2S,4R)—N-(2-(2-(4-((R)-3-((4-(N-(4-(2-((S)-2-(2-cyclopropylphenyl)pyrolidine-1-yl)-7-azaspiro[3.5]nonan-7-yl)benzoyl)sulfamoyl)-2-((trifluoromethyl)sulfonyl)phenyl)amino)-4-(phenylthio)butyl)piperazin-1-yl)ethoxy)-4 (4-methylthiazol-5-yl)benzyl)-1-((S)-2-(1-fluorocyclopropanecarboxamido)-3,3-dimethylbutanoyl)-4-hydroxypyrrolidine-2-carboxamide] displayed a Dmax at BCL-XL of 50 to 75%. The DC50 on BCL-XL was in the range of 10 to 100 nM. In addition, the results for the IC50 in the assay with MOLT-4 cells and with Caki-2 cells were 100 to 1000 nM and < 5000 nM, respectively.
On to `Cc1ncsc1-c1ccc([C@H](C)NC(=O)[C@@H]2C[C@@H](O)CN2C(=O)[C@@H](NC(=O)CCCCCC(=O)N2CCN(CC[C@H](CSc3ccccc3)Nc3ccc(S(=O)(=O)NC(=O)c4ccc(N5CCN(Cc6ccccc6-c6ccc(Cl)cc6)CC5)cc4)cc3[N+](=O)[O-])CC2)C(C)(C)C)cc1` [I-35], for which the Dmax on BCL-XL was > 75%. Besides, the DC50 on BCL-XL lay in the range of 10 to 100 nM. Also, the values for the IC50 in the assay with MOLT-4 cells and in the assay on Caki-2 cells were > 3000 nM and > 30000 nM, respectively.
In the case of `Cc1ncsc1-c1ccc([C@H](C)NC(=O)[C@@H]2C[C@@H](O)CN2C(=O)[C@@H](NC(=O)CCCCCC(=O)N2CCN(CC[C@H](CSc3ccccc3)Nc3ccc(S(=O)(=O)NC(=O)c4ccc(N5CCOCC5)cc4)cc3S(=O)(=O)C(F)(F)F)CC2)C(C)(C)C)cc1` [I-36], on BCL-XL, the Dmax is < 50% and the DC50 is 500 to 1000 nM. Also, in the assay with MOLT-4 cells, the IC50 is > 3000 nM. In addition, the IC50 in the assay on Caki-2 cells was > 30000 nM.
In the same order, the values of `Cc1ncsc1-c1ccc([C@H](C)NC(=O)[C@@H]2C[C@@H](O)CN2C(=O)[C@@H](NC(=O)CCCCCC(=O)N2CCN(CC[C@H](CSc3ccccc3)Nc3ccc(S(=O)(=O)NC(=O)c4ccc(N5CC6CC6C5)cc4)cc3S(=O)(=O)C(F)(F)F)CC2)C(C)(C)C)cc1` (stereo partly drawn) [I-37] are < 50%, 500 to 1000 nM, > 3000 nM and > 30000 nM.
The like results for `Cc1ncsc1-c1ccc([C@H](C)NC(=O)[C@@H]2C[C@@H](O)CN2C(=O)[C@@H](NC(=O)CCCCCC(=O)N2CCN(CC[C@H](CSc3ccccc3)Nc3ccc(S(=O)(=O)NC(=O)c4ccc(NC5CCOCC5)cc4)cc3S(=O)(=O)C(F)(F)F)CC2)C(C)(C)C)cc1` [I-39] were, in that order, 50 to 75%, 100 to 500 nM, > 3000 nM and > 30000 nM.
In the same order, the values of `Cc1ncsc1-c1ccc([C@H](C)NC(=O)[C@@H]2C[C@@H](O)CN2C(=O)[C@@H](NC(=O)CCCCCC(=O)N2CCN(CC[C@H](CSc3ccccc3)Nc3ccc(S(=O)(=O)NC(=O)c4ccc(N5CC6CCC5C6)cc4)cc3S(=O)(=O)C(F)(F)F)CC2)C(C)(C)C)cc1` (stereo partly drawn) [I-40] are 50 to 75%, 500 to 1000 nM, > 3000 nM and > 30000 nM.
On to `Cc1ncsc1-c1ccc([C@H](C)NC(=O)[C@@H]2C[C@@H](O)CN2C(=O)[C@@H](NC(=O)CCCCCC(=O)N2CCN(CC[C@H](CSc3ccccc3)Nc3ccc(S(=O)(=O)NC(=O)c4ccc(N5CCCN(C)CC5)cc4)cc3S(=O)(=O)C(F)(F)F)CC2)C(C)(C)C)cc1` [I-41], for which, at BCL-XL, the maximal degradation (Dmax) was < 50%. In addition, on BCL-XL, the DC50 lay within 500 to 1000 nM. Also, the IC50 with MOLT-4 cells is > 3000 nM; with Caki-2 cells, > 30000 nM.
Consider `Cc1ncsc1-c1ccc([C@H](C)NC(=O)[C@@H]2C[C@@H](O)CN2C(=O)[C@@H](NC(=O)CCCCCC(=O)N2CCN(CC[C@H](CSc3ccccc3)Nc3ccc(S(=O)(=O)NC(=O)c4ccc(N5CCN(CC6=C(c7ccc(Cl)cc7)CC(C)(C)CC6)CC5)cc4)cc3S(=O)(=O)C(F)(F)F)CC2)C(C)(C)C)cc1` [I-42], for which, on BCL-XL, the greatest degradation seen (Dmax) was > 75% and the DC50 fell in the range of 10 to 100 nM. Further, in the assay on MOLT-4 cells, the IC50 was < 100 nM. Besides, the IC50 in the assay with Caki-2 cells was 5000 to 10000 nM.
